The Kinase Knowledgebase extract (Sharma et al. 2016)

Target: EGFR (UniProt P00533)
Test: Inhibition of EGFR Kinase Activity

Chain of EGFR (P00533 whole entry, looked up): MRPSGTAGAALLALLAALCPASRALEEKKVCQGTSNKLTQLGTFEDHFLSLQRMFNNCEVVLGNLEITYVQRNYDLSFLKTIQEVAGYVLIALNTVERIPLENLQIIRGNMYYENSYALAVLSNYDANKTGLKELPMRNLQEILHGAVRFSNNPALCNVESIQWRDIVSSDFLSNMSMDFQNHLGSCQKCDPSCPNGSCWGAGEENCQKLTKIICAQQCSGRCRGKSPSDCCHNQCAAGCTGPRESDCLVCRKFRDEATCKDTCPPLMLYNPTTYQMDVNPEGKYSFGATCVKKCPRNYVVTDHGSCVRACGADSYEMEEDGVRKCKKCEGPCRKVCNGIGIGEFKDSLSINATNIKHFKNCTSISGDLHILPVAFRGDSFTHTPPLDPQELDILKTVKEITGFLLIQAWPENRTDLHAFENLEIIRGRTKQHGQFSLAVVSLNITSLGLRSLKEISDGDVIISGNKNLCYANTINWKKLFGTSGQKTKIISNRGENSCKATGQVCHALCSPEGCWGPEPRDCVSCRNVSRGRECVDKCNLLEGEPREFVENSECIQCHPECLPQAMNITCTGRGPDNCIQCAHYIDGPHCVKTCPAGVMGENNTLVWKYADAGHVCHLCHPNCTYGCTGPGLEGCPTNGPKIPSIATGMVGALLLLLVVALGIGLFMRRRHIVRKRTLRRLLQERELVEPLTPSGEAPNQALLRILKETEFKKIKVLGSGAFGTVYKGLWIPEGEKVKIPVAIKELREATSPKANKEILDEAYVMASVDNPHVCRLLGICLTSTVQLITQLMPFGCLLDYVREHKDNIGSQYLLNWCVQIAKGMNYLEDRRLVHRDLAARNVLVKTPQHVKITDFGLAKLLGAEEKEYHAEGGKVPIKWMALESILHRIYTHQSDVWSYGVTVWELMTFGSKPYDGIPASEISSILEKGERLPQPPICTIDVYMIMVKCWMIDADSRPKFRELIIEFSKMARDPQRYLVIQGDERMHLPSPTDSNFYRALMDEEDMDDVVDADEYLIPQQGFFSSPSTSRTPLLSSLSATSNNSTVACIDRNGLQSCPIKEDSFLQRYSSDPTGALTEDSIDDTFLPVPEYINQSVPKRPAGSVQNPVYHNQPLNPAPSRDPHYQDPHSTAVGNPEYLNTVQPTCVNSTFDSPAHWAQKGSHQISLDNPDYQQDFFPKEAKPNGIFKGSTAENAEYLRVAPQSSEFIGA

C=CC(=O)Nc1ccc(Nc2ncnc(N(CC)c3ccc(OCCOC)c(OC)c3)n2)cc1
IC50: < 50 µM

C=CC(=O)Nc1cccc(Nc2ncnc(N(CC)C3CC3c3ccccc3)n2)c1 (stereo not drawn)
IC50: < 50 µM

C=CC(=O)Nc1cccc(Nc2ncnc(Nc3ccc4c(ccn4Cc4ccccc4)c3)n2)c1
IC50: < 50 µM

C=CC(=O)Nc1cccc(Nc2ncnc(Nc3ccc4c(cnn4Cc4ccccc4)c3)n2)c1
IC50: < 50 µM

C=CC(=O)Nc1ccc(Nc2ncnc(N(CC)c3ccc(OC)c(OC)c3)n2)cc1
IC50: < 50 µM

CC#CC(=O)Nc1cccc(Nc2ncnc(N(C)c3ccc(OCc4ccccc4)cc3)n2)c1
IC50: < 50 µM

C=CC(=O)Nc1cccc(Nc2ncnc(N(CC)c3ccc4c(cnn4Cc4ccccc4)c3)n2)c1
IC50: < 50 µM

C=CC(=O)Nc1cccc(Nc2ncnc(N(CC)c3cccc(CC(=O)OC)c3)n2)c1
IC50: < 50 µM

CC#CC(=O)Nc1cccc(Nc2ncnc(N(CC)c3ccc(OC)c(OCCOC)c3)n2)c1
IC50: < 50 µM

C=CC(=O)Nc1ccc(Nc2ncnc(N(CC)c3ccc(OCCO)cc3)n2)cc1
IC50: < 50 µM

C=CCN(c1cccc(C)c1)c1ncnc(Nc2ccc(NC(=O)C=C)cc2)n1
IC50: < 50 µM

C#CCC(=O)Nc1cccc(Nc2ncnc(NN3CCCc4ccc(Cl)cc43)n2)c1
IC50: < 50 µM

CC#CC(=O)Nc1cccc(Nc2ncnc(N(C)c3ccc(OC)c(OC)c3)n2)c1
IC50: < 50 µM

C=CC(=O)Nc1ccc(Nc2ncnc(N(C)C3CC3c3ccc(Cl)cc3)n2)cc1 (stereo not drawn)
IC50: < 50 µM

C=CCN(c1ncnc(Nc2cccc(NC(=O)C=C)c2)n1)c1cc(Cl)cc2ccccc12
IC50: < 50 µM

CC#CC(=O)Nc1cc(Nc2ncnc(Nc3ccc4c(ccn4Cc4ccccc4)c3)n2)ccc1OCCCN1CCOCC1
IC50: < 50 µM

C=CC(=O)N(CCCN1CCOCC1)c1cccc(Nc2ncnc(Nc3ccc(OC)c(OC)c3)n2)c1
IC50: < 50 µM

CC#CC(=O)Nc1cccc(Nc2ncnc(N(CC)c3ccc(OCc4ccccc4)cc3)n2)c1
IC50: < 50 µM

C=CC(=O)Nc1cccc(Nc2ncnc(N(C)C3CC3c3ccccc3)n2)c1 (stereo not drawn)
IC50: < 50 µM

C=CC(=O)Nc1cc(Nc2ncnc(Nc3ccc(OCc4ccccc4)c(Cl)c3)n2)ccc1OCCCN1CCOCC1
IC50: < 50 µM

CC#CC(=O)Nc1cccc(Nc2ncnc(N(CC)c3cccc(CC(=O)OC)c3)n2)c1
IC50: < 50 µM

C=CC(=O)Nc1cccc(Nc2ncnc(N(C)c3ccc(OC)c(OCCOC)c3)n2)c1
IC50: < 50 µM

CC#CC(=O)Nc1cccc(Nc2ncnc(Nc3ccc4c(ccn4Cc4ccccc4)c3)n2)c1
IC50: < 50 µM

C=CC(=O)Nc1ccc(Nc2ncnc(Nc3ccc(OCC)c(OCC)c3)n2)cc1
IC50: < 50 µM

C=CCN(c1ccc2NN(=Cc2c1)Cc3ccccn3)c4ncnc(Nc5ccc(NC(=O)C=C)cc5)n4
IC50: < 50 µM

C=CC(=O)Nc1ccc(Nc2ncnc(N(C)c3cccc(Cl)c3)n2)cc1
IC50: < 50 µM

C=CC(=O)Nc1cccc(Nc2ncnc(Nc3ccc(OCCOC)c(OC)c3)n2)c1
IC50: < 50 µM

C=CCN(c1ncnc(Nc2ccc(NC(=O)C=C)cc2)n1)C1CC1c1ccccc1 (stereo not drawn)
IC50: < 50 µM

C=CC(=O)N(CCCN1CCOCC1)c1cccc(Nc2ncnc(Nc3ccc4c(cnn4Cc4ccccc4)c3)n2)c1
IC50: < 50 µM

C=CCN(c1ncnc(Nc2cccc(NC(=O)C#CC)c2)n1)c1cc(Cl)ccc1C
IC50: < 50 µM

CC#CC(=O)Nc1cccc(Nc2ncnc(Nc3ccc(OC)c(OCCOC)c3)n2)c1
IC50: < 50 µM

C=CC(=O)Nc1ccc(Nc2ncnc(Nc3ccc(OC)cc3)n2)cc1
IC50: < 50 µM

C=CCN(c1cccc(CC(=O)OC)c1)c1ncnc(Nc2cccc(NC(=O)C#CC)c2)n1
IC50: < 50 µM

C=CC(=O)Nc1cccc(Nc2ncnc(N(CC)c3ccc(OCCC)c(OCCC)c3)n2)c1
IC50: < 50 µM

CC#CC(=O)Nc1cccc(Nc2ncnc(Nc3ccc(OCC)c(OCC)c3)n2)c1
IC50: < 50 µM

C=CC(=O)Nc1ccc(Nc2ncnc(N(C)c3ccc(OCCC)c(OCCC)c3)n2)cc1
IC50: < 50 µM

C=CC(=O)Nc1cccc(Nc2ncnc(N(CC)c3cccc(C(N)=O)c3)n2)c1
IC50: < 50 µM

CC#CC(=O)Nc1cccc(Nc2ncnc(n2)N(C)c3ccc4NN(=Cc4c3)Cc5ccccn5)c1
IC50: < 50 µM

C=CC(=O)Nc1ccc(Nc2ncnc(Nc3cccc(C(N)=O)c3)n2)cc1
IC50: < 50 µM

C=CC(=O)Nc1ccc(Nc2ncnc(N(C)c3ccc(C(=O)OC)cc3)n2)cc1
IC50: < 50 µM

CC#CC(=O)Nc1cccc(Nc2ncnc(N(CC)c3ccc(OC)c(OC)c3)n2)c1
IC50: < 50 µM

C=C/C=C/C(=O)Nc1cccc(Nc2ncnc(Nc3ccc4c(ccn4Cc4ccccc4)c3)n2)c1
IC50: < 50 µM

CC#CC(=O)Nc1cccc(Nc2ncnc(Nc3cccc(CC(=O)OC)c3)n2)c1
IC50: < 50 µM

CCN(c1ccc2NN(=Cc2c1)Cc3ccccn3)c4ncnc(Nc5ccc(NC(=O)C=C)cc5)n4
IC50: < 50 µM

C=CC(=O)Nc1cc(Nc2ncnc(N(C)c3ccc(OCc4ccccc4)c(Cl)c3)n2)ccc1OCCCC1CCN(C)CC1
IC50: < 50 µM

C=CC(=O)Nc1cccc(Nc2ncnc(Nc3cccc(C(N)=O)c3)n2)c1
IC50: < 50 µM

C=CC(=O)Nc1cccc(Nc2ncnc(N(C)c3ccc4c(ccn4Cc4ccccc4)c3)n2)c1
IC50: < 50 µM

C=CC(=O)Nc1cccc(Nc2ncnc(Nc3cc(Cl)cc4ccccc34)n2)c1
IC50: < 50 µM
